According to patent US11371097B2, “Articles for diagnosis of liver fibrosis” (THE GOVERNMENT OF THE UNITED STATES, as represented by THE …, priority 2015, dated 2022):
“Also recorded” adds a separate entry of the source.

Columns and labels:
[1] = system: Timp1; assay: qPCR of liver RNA: Timp1; assay type: in vivo, Male Sprague-Dawley rats; conditions: across dose groups, vs control
Protocol: (§1) Working on dry ice, a portion (−10 mg) of flash-frozen liver was cut from each sample and transferred to a clean, labeled tube. Total RNA was then isolated using Qiagen's miRNeasy 96 kit (Qiagen, Valencia, Calif.) following manufacturer's instructions with a final elution volume of −150 μL (2×75 μL). The quality and quantity of RNA samples were evaluated with a 2100 Bioanalyzer (Agilent Technologies, Santa Clara, Calif.), using the Agilent RNA 6000 Nano Reagents and a multiwell NanoDrop 8000 spectrophotometer (Thermo Fisher Scientific, Waltham, Mass.).
(§2) Using 1 μg RNA input, cDNA was generated using a QuantiTect Reverse Transcription kit (Qiagen, Valencia, Calif.) following manufacturer's instructions. Applied Biosystems SYBR Green Master Mix was used in a 20 μL qPCR reaction with 2 μL of cDNA template and a 2.tM final concentration of each primer. A total of five genes were targeted (Gapdh, Actb, Timp1, Tgfbl, and Psma5), two of which served as the endogenous controls (Gapdh and Actb). An Applied Biosystems 7500 Real-Time PCR System (Applied Biosystems, Foster City, Calif.) was used for thermal cycling and fluorescence detection using the default settings for Quantitation-Comparative CT with SYBR® . . . Green Reagents which uses the following scheme: 95° C. for 10 minutes followed by 40 cycles of: 95° C. for 15 seconds, 60° C. for 1 minute, and a fluorescence signal read. […]

[2] = system: tissue, plasma, or serum protein abundance; assay: Global semiquantitative proteomics (iTRAQ mass spectrometry) of tissue, plasma, serum; assay type: in vivo, Rattus norvegicus; conditions: for Differentially expressed proteins: global proteomics
Description: Global semiquantitative proteomics analysis (iTRAQ analysis) identified protein products of a subset of the 24 genes differentially expressed in liver tissue specific for the fibrosis phenotype (Table 6). Six protein products were identified in plasma, four in the serum, and two in the liver tissue (Table 6). All protein products were identified in the contrast analysis as specific for the fibrosis phenotype. The direction of the changes in protein products matched the transcriptomics data with the exception of insulin-like growth factor binding protein complex acid labile subunit precursor. […] (Ippolito D L, et. al. Gene expression patterns associated with histopathology in toxic liver fibrosis. Tox Sci. 2015 Sep. 22. pii: kfv214)
(§3) Serum miRNA expression was measured by next-generation sequencing. Gene expression in the liver was determined by microarray, and global serum and liver protein expression was determined by semi-quantitative mass spectrometry. […] Transcriptomic analysis identified 506 differentially expressed genes in the liver. 13 miRNAs were predicted to target 100 unique differentially expressed genes in the liver. Global proteomics analysis identified 131 differentially expressed proteins in the liver and 53 in the serum. Of these, 7 miRNAs targeted 13 unique genes coding for differentially expressed liver tissue proteins and 3 miRNAs targeted 3 unique genes coding for serum proteins. These 16 differentially expressed miRNAs in the serum are predicted to target and potentially regulate gene expression contributing to the progression of toxic liver injury. (Fermenter M G et al. Serum miRNA as prognostic indicators of toxic liver injury. Submitted abstract in October 2015 for presentation at the Society of Toxicology in March 2016 (New Orleans, La.)).

[3] = system: liver; conditions: 5-7 days oral administration or intraperitoneal injection, various doses; cited from earlier work
[4] = system: serum miRNA; assay: Serum miRNA expression by next-generation sequencing; assay type: in vivo, rats; conditions: FDR<0.05
Protocol: as §3

[5] = system: Psma5; assay: qPCR of liver RNA: Psma5; assay type: in vivo, Male Sprague-Dawley rats; conditions: high-dose group with vacuolation pathology; p<0.05
Protocol: as §1, §2

[6] = system: 67 genes on the fibrosis gene panel; conditions: rat, in vivo
Protocol: mRNA is isolated and purified from lysed tissue biopsy specimens. The target mRNA is incubated with beads conjugated to capture probes (each probe is an oligonucleotides specific for one of the genes in the panel). The target is hybridized to the probe by a capture extender-capture probe interaction. Specific mRNA targets hybridize overnight to the respective beads. The signal is amplified by incubating mRNA-capture probe pairs by affixing an amplifier affixed to a biotinylated label probe. Streptavidin-conjugated phycoerythrin (SAPE) is bound to the biotinylated probe to amplify the signal. The signal is detected and quantified by Bioplex suspension array instrumentation, which measures the SAPE fluorescence signal proportional to the amount of mRNA transcripts captured by the bead.
Candidate genes identified by co-expression modules and pathway/network approaches were fabricated into a custom gene panel using a commercial source (the QuantiGene 2.0 Plex assay, Affymetrix, Santa Clara, Calif.). A total of 71 genes plus 3 housekeeping genes were selected. Using 150 ng RNA input, samples were processed following manufacturer's instructions for purified RNA with use of the HandHeld Magnetic Plate Washer. Plates were read immediately following the final wash using the BioPlex 200 instrument (BioRad, Hercules, Calif.). The following parameters were set on the BioPlex instrument: sample size=100 μL; DD Gate=5,000-25,000; Timeout=45 sec; Bead Event/Bead Region=100.
For each sample, the average signal intensity was determined as recommended by the manufacturer. Duplicates were averaged. The average background signal for each gene was subtracted. Assay limit of detection was determined by adding three standard deviations of assay background signals to the average intensity of the background control wells. All intensities lower than the limit of detection for each probe was set to one unit above the probe's limit of detection. Probes with all intensities below the assay limit of detection were removed from the final analysis. The test gene signal was divided by the average intensities of the three normalization genes (Gapdh, Hprt1, Ppib). For each test gene, the fold change was calculated by dividing the normalized value for the treated samples by the normalized value of the vehicle-treated controls. Fold changes were plotted as log2 fold change. Gene expression data were imported into Partek Genomics Suite 6.0 (Partek, Inc., St. Louis, Mo.). Principal component analysis was used for multivariate interpretation to determine sources of variation across sample groups (Joliffe I T, Morgan B J. Principal component analysis and exploratory factor analysis. Statistical methods in medical research 1992; 1(1):69-95). Differentially expressed genes were determined by analysis of variance (ANOVA) with contrasts, setting the ANOVA factors as toxicant and the histopathological endpoint of fibrosis (any score >0). ANOVA variables were fibrosis score 0 (none) vs. score of >0 (minimal, mild, moderate, and marked). For hierarchical biclustering, differentially expressed genes were standardized by setting the genes expressed to a mean of zero and scaling to a standard deviation of one. Euclidean geometry was used to cluster row and column dissimilarity using a method of average linkage.
Chemical-dose groups were down-selected based on histopathology to conform to the 96-well assay format of the multiplexed panel of presumptive fibrosis genes. Three of the four dose groups were evaluated for the fibrogenic chemicals allyl alcohol and 4,4′-methylenedianiline. A single dose was selected with group-matched vehicle controls for each of the remaining chemicals. […] The highest dose of bromobenzene was selected because the vacuolation pathology was only observed at this dose.
Isolated liver RNA was incubated with microbead-bound capture probes specific for the 71 presumptive fibrogenic genes and three housekeeping normalization genes.

[7] = Observation of plasma (lipemia) after dosing; assay type: in vivo, Male Sprague-Dawley rats; conditions: all doses
Protocol: Animals were observed cageside one hour following daily dose administration, then 1-2 times per day during dosing regimens. Body weights were measured daily prior to dose administration, and prior to euthanasia. Twenty-four hours after the final dose administration, animals were anesthetized with isoflurane then euthanized by exsanguination followed by decapitation. Livers were harvested at necropsy and weighed to within 0.1 g. One half of the left lobe of the liver was fixed in 10% formalin. The remaining half of the left lobe of the liver was flash frozen in liquid nitrogen, then stored below −70° C. Liver specimens were frozen in less than three minutes from time of death.

[8] = plasma, 4,4′-methylenedianiline/vehicle, Group 2
[9] = serum, 4,4′-methylenedianiline/vehicle, Group 2
[10] = tissue, 4,4′-methylenedianiline/vehicle, Group 2

SMILES: Nc1ccc(Cc2ccc(N)cc2)cc1 [4,4′-methylenedianiline]
- Timp1 gene expression by qPCR [1]: showed a dose-dependent increase; also recorded: dose-dependent increases in gene expression
- Differentially expressed proteins ([2]; liver): 131
- Fold change alpha-2-macroglobulin precursor [2, 8]: 2.2 Fold change
- Fold change ceruloplasmin isoform 1 precursor [2, 8]: 2.5 Fold change
- Fold change fibronectin precursor [2, 8]: −1.3 Fold change
- Fold change insulin-like growth factor-binding protein complex acid labile subunit precursor [2, 8]: −1.4 Fold change
- Fold change vitronectin precursor [2, 8]: −1.6 Fold change
- Differentially expressed proteins ([2]; serum): 53
- Fold change alpha-2-macroglobulin precursor [2, 9]: 2.4 Fold change
- Fold change ceruloplasmin isoform 1 precursor [2, 9]: 2.4 Fold change
- Fold change complement C1q subcomponent subunit B precursor [2, 9]: 1.6 Fold change
- Fold change vitronectin precursor [2, 9]: −1.1 Fold change
- Fold change ceruloplasmin isoform 1 precursor [2, 10]: 3.0 Fold change
- Fold change fibronectin precursor [2, 10]: 1.4 Fold change
- Fibrosis score in the DrugMatrix study [3]: scored fibrosis-positive
- Differentially expressed miRNA [4]: 16
- Downregulated miRNA [4]: 4
- Upregulated miRNA [4]: 12

SMILES: Brc1ccccc1 [bromobenzene]
- Psma5 expression [5]: 2.2±0.8 fold vehicle control

SMILES: C[C@@H]1C[C@H]2[C@@H]3CCC4=CC(=O)C=C[C@]4(C)[C@@]3(F)[C@@H](O)C[C@]2(C)[C@@]1(O)C(=O)CO [dexamethasone]
- Panel genes downregulated (and upregulated in fibrogenic chemical-dose groups) [6]: 12 genes
- Pcolce expression levels compared with fibrogenic compounds [6]: anti-correlated with corresponding gene expression levels induced by 4,4′-methylenedianiline and allyl alcohol
- Lipemia (plasma appearance) [7]: resulted in lipemia (milky white plasma)
